19 compounds from ChEMBL document CHEMBL3751728, “C5-substituted pyrido[2,3-d]pyrimidin-7-ones as highly specific kinase inhibitors targeting the clinical resistance-related EGFRT790Mmutant” (Medchemcomm, 2015) can be followed below.

Data set [1] addresses T1, Epidermal growth factor receptor (Homo sapiens, UniProt P00533). The data set is described as follows: Inhibiton of wild type EGFR (unknown origin) using Poly (Glu4Tyr1) as substrate incubated for 1 hr by ELISA. It is filed as single protein. (In an ELISA, binding on a coated surface is turned into a signal by an enzyme label.)
Data set [2] concerns the target T2, Epidermal growth factor receptor (Homo sapiens, UniProt P00533, L858R/T790M). It is filed as protein assay.
Data set [3] deals with T1, Epidermal growth factor receptor.
Data set [4] addresses T2, Epidermal growth factor receptor.
The species named for data set [5] is Homo sapiens. The data set is described as follows: Selectivity index, ratio of IC50 for wild type EGFR (unknown origin) to IC50 for EGFR L858R/T790M mutant (unknown origin).
Data set [6] is filed under the species Homo sapiens. The data set can be described thus: Selectivity ratio of Kd for wild type human EGFR to Kd for human EGFR L858R/T790M mutant.
Data set [7] has as its system NCI-H1975. The data set can be described thus: Effect on total EGFR T790M mutant level in EGF-stimulated human NCI-H1975 cells preincubated for 2 hrs followed by EGF stimulation measured after 15 mins by Western blot analysis. It is filed as ADME, cell-based. Particulars: nci-h1975, 0.25 h.
In data set [8] the test system is NCI-H1975. The data set is described as follows: Cytotoxicity against human NCI-H1975 harboring EGFR L858R/T790M mutant after 72 hrs by SRB assay. It is filed as functional, cell-based. Particulars: NCI-H1975, 72 h. (In SRB staining, fixed cells bind dye roughly in proportion to their protein.)
Another data set concerns A-431. The data set can be described thus: Cytotoxicity against human A431 cells overexpressing wild type EGFR after 72 hrs by SRB assay. It is filed as cell-based. The following applies: A-431, 72 h.
The subject of data set [9] is NCI-H1975. The data set can be described thus: Selectivity index, ratio of IC50 for human A431 cells overexpressing wild type EGFR to IC50 for human NCI-H1975 cells harboring EGFR L858R/T790M mutant.
In data set [10] the test system is NCI-H1975. The data set is described as follows: Effect on total AKT level in EGF-stimulated human NCI-H1975 cells expressing EGFR T790M mutant preincubated for 2 hrs followed by EGF stimulation measured after 15 mins by Western blot analysis. It is filed as ADME, cell-based. The following applies: nci-h1975, 0.25 h. (Immunoblotting shows a protein as a band on a membrane.)

Data set [11] relates to NCI-H1975. The data set is described as follows: Effect on total ERK level in EGF-stimulated human NCI-H1975 cells expressing EGFR T790M mutant preincubated for 2 hrs followed by EGF stimulation measured after 15 mins by Western blot analysis. It is filed as ADME, cell-based. The following applies: nci-h1975, 0.25 h.
Data set [12] concerns the target T1, Epidermal growth factor receptor. The data set is described as follows: Inhibition of EGF-stimulated wild type EGFR phosphorylation in human A431 cells at 100 nM preincubated for 2 hrs followed by EGF stimulation measured after 15 mins by Western blot analysis. It is filed as cell-based. The following applies: a-431, 0.25 h, 0.1 µM.
Data set [13] has the same target. The data set is described as follows: Inhibition of EGF-stimulated wild type EGFR phosphorylation in human A431 cells assessed as suppression of AKT phosphorylation at 100 nM preincubated for 2 hrs followed by EGF stimulation measured after 15 mins by Western blot analysis. The following applies: a-431, 0.25 h, 0.1 µM. It is filed as cell-based.
The target is the same in data set [14]. The data set can be described thus: Inhibition of EGF-stimulated wild type EGFR phosphorylation in human A431 cells assessed as suppression of ERK phosphorylation at 100 nM preincubated for 2 hrs followed by EGF stimulation measured after 15 mins by Western blot analysis. It is filed as cell-based. Particulars: a-431, 0.25 h, 0.1 µM.
In data set [15] the test system is NCI-H1975. The data set is described as follows: Selectivity index, ratio of IC50 for human GES1 cells to IC50 for human NCI-H1975 cells harboring EGFR L858R/T790M mutant.
The subject of data set [16] is NCI-H1975. The data set can be described thus: Selectivity index, ratio of IC50 for human LO2 cells to IC50 for human NCI-H1975 cells harboring EGFR L858R/T790M mutant.
The test system of data set [17] is NCI-H1975. The data set is described as follows: Selectivity index, ratio of IC50 for human WI38 cells to IC50 for human NCI-H1975 cells harboring EGFR L858R/T790M mutant.
For data set [18], the system named is NCI-H1975. The data set can be described thus: Selectivity index, ratio of IC50 for human MCF10A cells to IC50 for human NCI-H1975 cells harboring EGFR L858R/T790M mutant.
Data set [19] relates to Epidermal growth factor receptor (Homo sapiens), P00533 [L858R,T790M]. The following applies: H1975, 1 uM.
Epidermal growth factor receptor (Homo sapiens), P00533 [L858R,T790M], sequence (P00533 whole entry T790M/L858R, looked up): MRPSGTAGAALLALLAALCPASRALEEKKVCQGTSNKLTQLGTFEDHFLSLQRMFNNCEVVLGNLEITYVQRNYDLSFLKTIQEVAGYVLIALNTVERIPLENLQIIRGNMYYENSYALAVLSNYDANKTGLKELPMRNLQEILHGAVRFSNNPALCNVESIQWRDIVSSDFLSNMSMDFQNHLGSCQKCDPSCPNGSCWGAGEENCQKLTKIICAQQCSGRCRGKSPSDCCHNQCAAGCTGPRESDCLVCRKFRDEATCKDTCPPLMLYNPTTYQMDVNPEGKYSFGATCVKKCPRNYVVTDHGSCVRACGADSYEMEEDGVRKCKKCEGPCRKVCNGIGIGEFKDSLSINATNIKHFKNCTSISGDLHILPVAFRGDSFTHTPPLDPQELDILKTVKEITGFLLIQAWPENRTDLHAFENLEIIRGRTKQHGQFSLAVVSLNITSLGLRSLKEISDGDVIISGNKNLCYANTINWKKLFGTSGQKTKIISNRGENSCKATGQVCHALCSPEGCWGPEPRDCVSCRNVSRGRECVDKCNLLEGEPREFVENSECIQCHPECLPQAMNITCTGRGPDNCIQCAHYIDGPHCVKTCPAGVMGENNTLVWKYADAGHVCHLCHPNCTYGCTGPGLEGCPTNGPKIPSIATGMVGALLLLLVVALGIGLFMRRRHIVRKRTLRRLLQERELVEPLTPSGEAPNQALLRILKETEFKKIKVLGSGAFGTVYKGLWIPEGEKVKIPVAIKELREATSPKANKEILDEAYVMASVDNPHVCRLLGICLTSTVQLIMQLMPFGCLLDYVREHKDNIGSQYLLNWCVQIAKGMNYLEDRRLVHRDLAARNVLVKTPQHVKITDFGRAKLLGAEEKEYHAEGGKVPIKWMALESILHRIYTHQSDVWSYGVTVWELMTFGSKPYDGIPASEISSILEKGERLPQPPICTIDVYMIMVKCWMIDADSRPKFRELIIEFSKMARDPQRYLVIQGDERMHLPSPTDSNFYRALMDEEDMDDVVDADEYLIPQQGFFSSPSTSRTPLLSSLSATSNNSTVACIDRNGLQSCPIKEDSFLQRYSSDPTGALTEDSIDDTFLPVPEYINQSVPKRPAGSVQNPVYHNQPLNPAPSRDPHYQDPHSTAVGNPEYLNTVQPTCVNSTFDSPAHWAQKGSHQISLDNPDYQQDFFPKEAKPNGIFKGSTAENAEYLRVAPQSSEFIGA
The test system is the same in data set [20]. Particulars: 100 nM.
In data set [21] the test system is Epidermal growth factor receptor (Homo sapiens), P00533 [T790M]. Particulars: 100 nM.
Epidermal growth factor receptor (Homo sapiens), P00533 [T790M], sequence (P00533 whole entry T790M): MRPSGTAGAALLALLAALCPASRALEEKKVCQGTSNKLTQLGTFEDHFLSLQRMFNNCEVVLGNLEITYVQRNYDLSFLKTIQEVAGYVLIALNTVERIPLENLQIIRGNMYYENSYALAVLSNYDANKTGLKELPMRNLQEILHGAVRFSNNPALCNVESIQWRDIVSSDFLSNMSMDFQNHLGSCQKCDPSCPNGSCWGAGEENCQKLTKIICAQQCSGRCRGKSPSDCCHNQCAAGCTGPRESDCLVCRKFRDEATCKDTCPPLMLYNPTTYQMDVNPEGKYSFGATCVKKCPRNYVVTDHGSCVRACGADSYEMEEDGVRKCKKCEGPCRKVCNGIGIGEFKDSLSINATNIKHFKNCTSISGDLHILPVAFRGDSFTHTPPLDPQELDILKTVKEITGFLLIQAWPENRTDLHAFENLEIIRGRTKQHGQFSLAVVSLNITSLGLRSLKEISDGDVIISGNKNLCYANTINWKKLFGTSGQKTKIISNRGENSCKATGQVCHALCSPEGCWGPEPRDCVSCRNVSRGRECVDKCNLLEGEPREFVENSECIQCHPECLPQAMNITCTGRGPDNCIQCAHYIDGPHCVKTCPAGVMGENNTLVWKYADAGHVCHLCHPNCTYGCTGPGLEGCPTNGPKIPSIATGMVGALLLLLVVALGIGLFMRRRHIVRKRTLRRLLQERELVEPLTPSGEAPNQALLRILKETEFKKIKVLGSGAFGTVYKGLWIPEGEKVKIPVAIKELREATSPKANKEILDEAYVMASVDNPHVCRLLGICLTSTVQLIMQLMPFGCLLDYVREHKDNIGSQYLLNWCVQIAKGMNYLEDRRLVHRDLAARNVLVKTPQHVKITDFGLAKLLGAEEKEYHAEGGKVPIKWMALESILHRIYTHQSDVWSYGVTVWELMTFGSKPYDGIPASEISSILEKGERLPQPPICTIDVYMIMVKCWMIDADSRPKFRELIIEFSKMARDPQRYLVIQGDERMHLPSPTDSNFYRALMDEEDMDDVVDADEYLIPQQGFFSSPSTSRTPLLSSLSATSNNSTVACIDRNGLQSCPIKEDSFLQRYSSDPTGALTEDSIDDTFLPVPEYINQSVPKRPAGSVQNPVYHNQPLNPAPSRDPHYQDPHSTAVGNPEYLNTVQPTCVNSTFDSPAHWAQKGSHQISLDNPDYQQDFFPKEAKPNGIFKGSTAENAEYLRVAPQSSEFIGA
Data set [22] shares this test system. The following applies: H1975, 0.3 to 30 nM.
The test system is the same in data set [23]. The following applies: H1975, 0.3 to 30 nM. This is another data set of the same source.
Data set [24] shares this test system. The following applies: H1975, 0.3 to 30 nM. The source holds these as a separate data set.

Calls of active or inactive are those of the source. The rule behind the calls is not given here. Where only a bound is given, the exact number is not on record here.

T1 sequence (P00533 whole entry): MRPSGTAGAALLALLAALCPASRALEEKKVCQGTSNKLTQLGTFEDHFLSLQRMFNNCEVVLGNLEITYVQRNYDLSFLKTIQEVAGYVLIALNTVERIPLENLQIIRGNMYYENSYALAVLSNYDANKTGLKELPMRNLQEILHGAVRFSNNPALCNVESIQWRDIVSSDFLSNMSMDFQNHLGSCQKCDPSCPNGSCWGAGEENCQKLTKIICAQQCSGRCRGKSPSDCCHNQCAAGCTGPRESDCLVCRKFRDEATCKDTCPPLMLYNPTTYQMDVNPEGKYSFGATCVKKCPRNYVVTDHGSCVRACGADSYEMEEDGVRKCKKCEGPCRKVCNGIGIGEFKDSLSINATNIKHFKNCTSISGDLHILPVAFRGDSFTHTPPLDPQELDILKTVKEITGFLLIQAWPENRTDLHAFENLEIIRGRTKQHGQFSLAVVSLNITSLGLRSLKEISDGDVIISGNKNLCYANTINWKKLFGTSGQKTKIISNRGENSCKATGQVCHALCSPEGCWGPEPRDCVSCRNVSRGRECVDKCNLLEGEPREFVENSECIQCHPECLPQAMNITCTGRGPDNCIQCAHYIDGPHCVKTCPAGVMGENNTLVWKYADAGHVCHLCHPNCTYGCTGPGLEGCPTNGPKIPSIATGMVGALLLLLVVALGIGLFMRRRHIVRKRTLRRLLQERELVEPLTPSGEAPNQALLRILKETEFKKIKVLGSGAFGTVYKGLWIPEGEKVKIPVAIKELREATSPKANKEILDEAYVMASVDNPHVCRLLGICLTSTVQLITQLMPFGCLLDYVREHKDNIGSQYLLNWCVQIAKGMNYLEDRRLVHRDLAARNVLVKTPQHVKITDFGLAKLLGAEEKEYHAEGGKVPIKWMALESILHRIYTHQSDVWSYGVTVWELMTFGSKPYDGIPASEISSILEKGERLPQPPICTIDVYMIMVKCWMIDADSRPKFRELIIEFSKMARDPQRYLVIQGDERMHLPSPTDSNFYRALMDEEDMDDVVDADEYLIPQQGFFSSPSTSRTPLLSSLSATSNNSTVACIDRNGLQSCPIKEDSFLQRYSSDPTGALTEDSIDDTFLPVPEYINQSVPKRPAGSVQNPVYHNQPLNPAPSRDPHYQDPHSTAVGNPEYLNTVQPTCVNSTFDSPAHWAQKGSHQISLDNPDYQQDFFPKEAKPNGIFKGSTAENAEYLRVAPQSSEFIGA
T2 sequence (P00533 25-1210 T790M/L858R limits assumed): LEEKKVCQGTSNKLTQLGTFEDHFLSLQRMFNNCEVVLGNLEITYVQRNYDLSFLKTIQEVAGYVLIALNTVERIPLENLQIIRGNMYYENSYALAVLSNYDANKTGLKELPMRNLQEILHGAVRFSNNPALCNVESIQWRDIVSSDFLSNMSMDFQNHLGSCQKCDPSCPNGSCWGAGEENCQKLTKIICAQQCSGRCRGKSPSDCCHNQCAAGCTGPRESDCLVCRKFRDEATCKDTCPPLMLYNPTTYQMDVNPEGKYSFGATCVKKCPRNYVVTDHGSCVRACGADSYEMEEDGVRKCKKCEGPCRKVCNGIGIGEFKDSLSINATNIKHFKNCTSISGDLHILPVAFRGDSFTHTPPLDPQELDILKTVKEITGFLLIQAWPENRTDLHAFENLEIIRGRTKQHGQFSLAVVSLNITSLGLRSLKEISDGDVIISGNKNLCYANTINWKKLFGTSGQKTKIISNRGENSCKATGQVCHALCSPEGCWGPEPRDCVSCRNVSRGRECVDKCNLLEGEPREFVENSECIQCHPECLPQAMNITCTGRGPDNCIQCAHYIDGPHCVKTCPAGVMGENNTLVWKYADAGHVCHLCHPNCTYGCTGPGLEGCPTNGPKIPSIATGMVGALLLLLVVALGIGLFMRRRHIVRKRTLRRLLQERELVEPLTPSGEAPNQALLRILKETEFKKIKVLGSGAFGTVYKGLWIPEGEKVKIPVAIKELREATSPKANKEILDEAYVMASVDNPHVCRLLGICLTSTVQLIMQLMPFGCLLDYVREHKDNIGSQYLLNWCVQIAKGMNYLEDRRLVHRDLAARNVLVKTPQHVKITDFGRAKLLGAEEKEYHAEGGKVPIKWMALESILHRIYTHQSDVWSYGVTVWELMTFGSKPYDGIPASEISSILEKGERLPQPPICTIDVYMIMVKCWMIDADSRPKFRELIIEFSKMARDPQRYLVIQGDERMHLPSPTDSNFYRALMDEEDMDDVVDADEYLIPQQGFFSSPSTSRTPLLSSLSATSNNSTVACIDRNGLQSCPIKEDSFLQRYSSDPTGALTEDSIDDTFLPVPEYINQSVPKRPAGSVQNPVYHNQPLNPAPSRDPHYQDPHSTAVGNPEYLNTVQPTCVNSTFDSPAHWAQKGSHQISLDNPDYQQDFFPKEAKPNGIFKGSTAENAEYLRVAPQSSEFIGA

By IC50 is commonly meant the midpoint of a concentration-inhibition curve. A high value points to lower potency. A word on the Kd: it is a measure of binding affinity in units of concentration. The low end stands for a tighter complex, the high end for a looser complex. As to `C=CC(=O)Nc1cccc(-n2c(=O)c(-c3ccccc3)cc3cnc(Nc4ccc(N5CCN(C)CC5)cc4OC)nc32)c1`, the IC50 in data set [1] was 0.0078 µM; in data set [2], 0.0002 µM. The equilibrium dissociation constant (Kd) in data set [3] was 0.0025 µM; in data set [4], 0.0005 µM.
`C=CC(=O)Nc1cccc(-n2c(=O)cc(C)c3cnc(Nc4ccc(N5CCN(C)CC5)cc4OCCC)nc32)c1`: the figures for the IC50 in data set [1] and in [2] were 0.27 µM and 0.019 µM, respectively.
On to `C=CC(=O)Nc1cccc(-n2c(=O)cc(C)c3c(C)nc(Nc4ccc(N5CCN(C)CC5)cc4OC)nc32)c1`, for which the IC50 in data set [1] was greater than 1 µM; in data set [2], 0.28 µM.
Regarding `C=CC(=O)Nc1cccc(-n2c(=O)ccc3cnc(Nc4ccc(N5CCN(C)CC5)cc4OC)nc32)c1`, the IC50 was found to be 0.015 µM in [1] and 0.0005 µM in data set [2]. The Ratio IC50 in the data set listed under Homo sapiens [5] was 30. In addition, the Kd turned out to be 0.014 µM in data set [3] and 0.00043 µM in [4]. In addition, in the data set listed under Homo sapiens [6], the Selectivity ratio amounted to 32.5.
As for `C=CC(=O)Nc1cccc(-n2c(=O)c(C)cc3cnc(Nc4ccc(N5CCN(C)CC5)cc4OC)nc32)c1`, the values for the IC50 in [1] and in data set [2] were 0.016 µM and 0.0013 µM, respectively. Further, the results for the Kd in data set [3] and in data set [4] were 0.0062 µM and 0.00088 µM, respectively.
Regarding `C=CC(=O)Nc1cccc(-n2c(=O)c(-c3ccccc3)c(C)c3cnc(Nc4ccc(N5CCN(C)CC5)cc4OC)nc32)c1`, the IC50 in data set [1] came to 0.02 µM; in data set [2] it was 0.0016 µM. Further, the figures for the Kd in data set [3] and in data set [4] were 0.0043 µM and 0.00091 µM, respectively.
As for `C=CC(=O)Nc1cccc(-n2c(=O)cc(CCC)c3cnc(Nc4ccc(N5CCN(C)CC5)cc4OC)nc32)c1`, the IC50 in data set [1] amounted to 0.97 µM; in [2], 0.0178 µM.
Take `C=CC(=O)Nc1cccc(-n2c(=O)cc(C(F)(F)F)c3cnc(Nc4ccc(N5CCN(C)CC5)cc4OC)nc32)c1`: the IC50 in data set [1] was greater than 1 µM; in data set [2], 0.039 µM.
With `C=CC(=O)Nc1cccc(-n2c(=O)cc(N(C)C)c3cnc(Nc4ccc(N5CCN(C)CC5)cc4OC)nc32)c1`, the IC50 in [1] was 0.21 µM; in [2], 0.095 µM.
One may read the inhibition as the relative decrease from the control value, in per cent. With `C=CC(=O)Nc1cccc(-n2c(=O)cc(C)c3cnc(Nc4ccc(N5CCN(C)CC5)cc4OC)nc32)c1`, the IC50 was found to be 0.24 µM in data set [1], 0.0008 µM in data set [2], 0.0028 µM in the data set with NCI-H1975 [8] and 0.87 µM in the data set with A-431. Further, the Activity result in the data set with NCI-H1975 [7], in the data set on NCI-H1975 [10] and in the data set with NCI-H1975 [11] was “Non-toxic” each time. In addition, the “Ratio IC50” value in the data set on NCI-H1975 [9] is 311; in the data set listed under Homo sapiens [5], 300; in the data set with NCI-H1975 [15], greater than 1000; in the data set with NCI-H1975 [16] it was greater than 1000; in the data set on NCI-H1975 [17], greater than 1000; in the data set with NCI-H1975 [18] it was greater than 1000. The Kd in [3] amounted to 0.048 µM; in data set [4], 0.00026 µM. Also, in the data set listed under Homo sapiens [6], the Selectivity ratio was 185. Further, the “inhibition (INH)” value in [12], in data set [13] and in [14] was “Active” in each case. In [19], the inhibition result was “Active”. The results for the inhibition in [20] and in data set [21] were 99.5% and less than 65%, respectively.
On to `C=CC(=O)Nc1cccc(-n2c(=O)cc(C3CC3)c3cnc(Nc4ccc(N5CCN(C)CC5)cc4OC)nc32)c1`, for which the IC50 amounted to 0.12 µM in data set [1] and 0.01 µM in data set [2]. Further, the Kd in [3] was 0.057 µM; in data set [4], 0.0022 µM.
`C=CC(=O)Nc1cccc(-n2c(=O)c(Cc3ccccc3)cc3cnc(Nc4ccc(N5CCN(C)CC5)cc4OC)nc32)c1`: the figures for the IC50 in data set [1] and in data set [2] were 0.001 µM and 0.0005 µM, respectively. The Ratio IC50 in the data set listed under Homo sapiens [5] amounted to 2. Moreover, the dissociation constant (Kd) in [3] is 0.0012 µM; in [4] it was 0.0005 µM.
Turning to `C=CC(=O)Nc1cccc(-n2c(=O)cc(C)c3cnc(Nc4ccc(N5CCN(C)CC5)cc4OC(C)C)nc32)c1`, the IC50 in data set [1] was greater than 1 µM; in [2], 0.078 µM.
The like results for `C=CC(=O)Nc1cccc(-n2c(=O)cc(-c3ccc(-c4ccccc4)cc3)c3cnc(Nc4ccc(N5CCN(C)CC5)cc4OC)nc32)c1` were, in that order, greater than 1 µM and greater than 1 µM.
Take `C=CC(=O)Nc1cccc(-n2c(=O)cc(C)c3cnc(Nc4ccc(N5CCN(C)CC5)cc4OCC)nc32)c1`: the IC50 in [1] amounted to 0.17 µM; in data set [2], 0.011 µM. For the same compound, the Kd was determined as 0.35 µM in [3] and 0.0012 µM in [4].
On to `C=CC(=O)Nc1cccc(-n2c(=O)cc(C(C)C)c3cnc(Nc4ccc(N5CCN(C)CC5)cc4OC)nc32)c1`, for which the half-inhibitory concentration (IC50) in data set [1] was 0.098 µM; in data set [2], 0.094 µM.
On to `C=CC(=O)Nc1cccc(-n2c(=O)cc(-c3ccccc3)c3cnc(Nc4ccc(N5CCN(C)CC5)cc4OC)nc32)c1`, for which the IC50 in data set [1] stood at 0.097 µM; in data set [2], 0.021 µM.
`C=CC(=O)Nc1cccc(Oc2nc(Nc3ccc(N4CCN(C)CC4)cc3OC)ncc2Cl)c1`: the inhibition result in data set [22], in data set [23] and in [24] was “Active” throughout.
Regarding `C=CC(=O)Nc1cccc(-n2c(=O)cc(CC)c3cnc(Nc4ccc(N5CCN(C)CC5)cc4OC)nc32)c1`, the IC50 turned out to be 0.114 µM in data set [1] and 0.0067 µM in [2]. The Kd in [3] came out at 0.14 µM; in data set [4] it was 0.0018 µM.
